Reference: patent US12435128B2, “Method for predicting therapeutic effect of LSD1 inhibitor based on expression of INSM1” (TAIHO PHARMACEUTICAL CO., LTD., priority 2017, dated 2025)

Tested on: HEL cells (human acute myelocytic leukemia cell lines)
Assay: Cell-growth inhibition test: HEL cells
Assay type: cell-based
Conditions: HEL cells; read-out: IC50 (nM), Cell-Growth Inhibition Test: HEL Cells
Description: Under the following conditions, an in vitro cell-growth inhibition test was performed with respect to HEL cells (human acute myelocytic leukemia cell lines), NCI-H1417 cells (human small-cell lung cancer cell lines), and NCI-H146 cells (human small-cell lung cancer cell lines).
The cells with the Example compound or with dimethylsulfoxide alone were cultured at 37° C. in a 5% carbon-dioxide-containing incubator for 5 days (HEL cells) or 10 days (NCI-H1417 cells and NCI-H146 cells). After culture, the plate was allowed to stand at room temperature for 30 minutes, and 100 μL of the supernatant was removed from each well to leave 100 μL of the cell culture solution. To each well containing the remaining 100 μL of the cell culture solution, the same amount of CellTiter-Glo 2.0 Assay (Promega, Cat #: G9242) was added. The microplate was shaken with a plate mixer for 1 minute and then allowed to stand in a dark place for 10 minutes. Thereafter, the luminescence intensity of viable cells in each well was measured using a microplate reader (PerkinElmer, EnSpire). […] Cell growth rate(%)=T/C×100 • T: The luminescence intensity in a well to which the test compound was added (count per second) • C: The luminescence intensity in a well to which dimethylsulfoxide alone was added (count per second)

| IC50 [nM] | SMILES |
| --- | --- |
| 3.5 | Cn1ncc2cc(-c3ccc(C(=O)N4[C@@H]5CC[C@H]4C[C@H](N)C5)cc3-c3ccc(C#N)c(F)c3)c(F)cc21 [Example 24, 4-[5-[(3-exo)-3-amino-8-azabicyclo[3.2.1]octane-8-carbonyl]-2-(6-fluoro-1-methyl-indazol-5-yl)phenyl]-2-fluoro-benzonitrile] |
| 11 | Cc1ccc(-c2ccc(C(=O)N3CC[C@H](N)C3)cc2-c2ccc([N+](=O)[O-])cc2)cc1 [Example 99, [(35)-3-aminopyrrolidin-1-yl]-[3-(4-nitrophenyl)-4-(p-tolyl)phenyl]methanone] |
| 5.74 | N#Cc1ccc(-c2cc(C(=O)N3[C@@H]4CC[C@H]3C[C@H](N)C4)ccc2-c2ccc3cccnc3c2F)cc1F [Example 105, 4-[5-[(3-exo)-3-amino-8-azabicyclo[3.2.1]octane-8-carbonyl]-2-(8-fluoro-7-quinolyl)phenyl]-2-fluoro-benzonitrile] |
| 5.29 | Cn1cnc2cc(-c3ccc(C(=O)N4[C@@H]5CC[C@H]4C[C@@H](N)C5)cc3-c3ccc(C#N)c(F)c3)c(F)c(F)c21 [Example 126, 4-[5-[(3-endo)-3-amino-8-azabicyclo[3.2.1]octane-8-carbonyl]-2-(6,7-difluoro-1-methyl-benzimidazol-5-yl)phenyl]-2-fluoro-benzonitrile] |
| 5.7 | CN1CCOc2cc(-c3ccc(C(=O)N4C5CCC4CC(N)C5)cc3-c3ccc(C#N)c(F)c3)ccc21 (stereo not drawn) [Example 128, 4-[5-[(3-endo)-3-amino-8-azabicyclo[3.2.1]octane-8-carbonyl]-2-(4-methyl-2,3-dihydro-1,4-benzoxazin-7-yl)phenyl]-2-fluoro-benzonitrile] |

Same assay, conditions: Homo sapiens, HEL, read-out: IC50 (nM), Cell-Growth Inhibition Test: HEL Cells

| SMILES | IC50 [nM] |
| --- | --- |
| CC(C)(O)Cn1ccc2cc(-c3ccc(C(=O)N4[C@H]5CC[C@@H]4[C@H](N)C5)cc3-c3ccc(C#N)c(F)c3)c(F)cc21 (single isomer, unassigned; isomer-b) [Example 171] | 0.08 |
| Cc1ccc(-c2ccc(C(=O)N3CCC4(CNC4)C3)cc2-c2ccc(C#N)cc2)cc1 [Example 5, 4-[5-(2,7-diazaspiro[3.4]octane-7-carbonyl)-2-(p-tolyl)phenyl]benzonitrile] | 34.8 |
| N#Cc1ccc(-c2cc(C(=O)N3CC[C@H](N)C3)ccc2-c2ccc(CC3(O)CC3)cc2)cc1 [Example 59, 4-[5-[(3S)-3-aminopyrrolidine-1-carbonyl]-2-[4-[(1-hydroxycyclopropyl)methyl]phenyl]phenyl]benzonitrile] | 32 |
| N#Cc1ccc(-c2cc(C(=O)N3CC[C@H](N)C3)ccc2-c2ccc(C3(C4(O)CC4)CC3)cc2)cc1 [Example 68, 4-[5-[(3S)-3-aminopyrrolidine-1-carbonyl]-2-[4-[1-(1-hydroxycyclopropyl)cyclopropyl]phenyl]phenyl]benzonitrile] | 23.9 |
| COCCc1ccc(-c2ccc(C(=S)N3CC[C@H](N)C3)cc2-c2ccc(C#N)c(F)c2)c(F)c1 [Example 94, 4-[5-[(3S)-3-aminopyrrolidine-1-carbothioyl]-2-[2-fluoro-4-(2-methoxyethyl)phenyl]phenyl]-2-fluoro-benzonitrile] | 29.4 |
| CN(C)c1ccc(-c2ccc(C(=O)N3CC[C@H](N)C3)cc2-c2ccc(C#N)c(F)c2)cn1 [Example 100, 4-[5-[(3S)-3-aminopyrrolidine-1-carbonyl]-2-[6-(dimethylamino)-3-pyridyl]phenyl]-2-fluoro-benzonitrile] | 12.8 |
| CN1CCc2cc(-c3ccc(C(=O)N4CC[C@H](N)C4)cc3-c3ccc(C#N)c(F)c3)ccc21 [Example 117, 4-[5-[(3S)-3-aminopyrrolidine-1-carbonyl]-2-(1-methylindolin-5-yl)phenyl]-2-fluoro-benzonitrile] | 5.54 |

Same assay, conditions: read-out: IC50 (nM), Cell-Growth Inhibition Test: HEL Cells

| SMILES | IC50 [nM] |
| --- | --- |
| Cn1cc(C(=O)O)c2cc(-c3ccc(C(=O)N4[C@@H]5CC[C@H]4[C@@H](N)C5)cc3-c3ccc(C#N)c(F)c3)c(F)cc21 (single isomer, unassigned) [Example 224] | 46.2 |
